Data published in ChEMBL document CHEMBL1201862, “PubChem BioAssay data set” (2004).
Calls of active or inactive are those of the source.

Assays:
[1] = test system: INS1; test: beta cell apoptosis inhibitors, cytokine rescue, dose response, luminescence, retest (AID 449756); format: functional, cell-based; conditions: Rattus norvegicus;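 also: cell death triggered by IL-1 beta plus TNF-alpha plus IFN-gamma mixture; protective hits raise ATP signal compared with cytokine alone wells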
[2] = control 3'UTR Renilla luciferase suppression, dose response, counter-screen for Shn3 inhibitor project, cell-based, Clone20-Shn3RL, cherry-picked (AID 624133); format: functional
[3] = test system: HEK293; test: NOD1 signaling inhibitors, primary screen, cell-based, luminescence, uHTS (AID 1578); format: functional; conditions: Homo sapiens
[4] = Shn3 3'UTR reporter inhibitors, dose response, cell-based, Clone20 osteoblasts, firefly luciferase, cherry-picked (AID 624132); format: functional;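 also: firefly luciferase luminescence from reporter carrying the Shn3 3'UTR in osteoblasts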
[5] = inhibitors of intracellular T. cruzi replication, confirmation, NIH3T3 host cells, beta-gal luminescence (AID 2044); format: functional, cell-based;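 also: intracellular parasites grown in NIH/3T3 mouse fibroblasts as host cells; luminescent beta-galactosidase reporter signal from transgenic T. cruzi replicating inside host cells; inhibitors lower the luminescence signal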
[6] = cytotoxicity toward NIH3T3 fibroblasts, dose response, counter-screen, cell-based, ATP luminescence, mouse fibroblasts (AID 2010); format: functional;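 also: cells exposed to compound for about 90 hours before reading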
[7] = cytotoxicity in HEK-293T cells, dose response, cytotoxicity control for TCR NF-kB inhibitor project, luminescence, T-cell screen hits (AID 489026); format: functional, cell-based;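 also: cells exposed to compound about 14 hours before the viability readout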
[8] = test system: HEK293; test: cells; format: functional, cell-based; conditions: Homo sapiens
[9] = test system: HEK293; test: NOD2 signaling inhibitors in MDP-stimulated cells, cell-based, uHTS, luminescence (AID 2001); format: functional; conditions: Homo sapiens
[10] = test system: HEK293; test: cells; format: functional, cell-based; conditions: Homo sapiens; remark: listed apart in the source
[11] = target: COUP transcription factor 2 (Homo sapiens, UniProt P24468); test: Luminescence-based cell-based high throughput dose response assay to identify inhibitors of COUP-TFII (NR2F2).; format: functional;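 also: HEK293 cells transiently cotransfected with COUP-TFII expression vector and reporter; luciferase reporter luminescence driven by COUP-TFII from the pX2-168 reporter plasmid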
Chain of COUP transcription factor 2 (P24468 whole entry): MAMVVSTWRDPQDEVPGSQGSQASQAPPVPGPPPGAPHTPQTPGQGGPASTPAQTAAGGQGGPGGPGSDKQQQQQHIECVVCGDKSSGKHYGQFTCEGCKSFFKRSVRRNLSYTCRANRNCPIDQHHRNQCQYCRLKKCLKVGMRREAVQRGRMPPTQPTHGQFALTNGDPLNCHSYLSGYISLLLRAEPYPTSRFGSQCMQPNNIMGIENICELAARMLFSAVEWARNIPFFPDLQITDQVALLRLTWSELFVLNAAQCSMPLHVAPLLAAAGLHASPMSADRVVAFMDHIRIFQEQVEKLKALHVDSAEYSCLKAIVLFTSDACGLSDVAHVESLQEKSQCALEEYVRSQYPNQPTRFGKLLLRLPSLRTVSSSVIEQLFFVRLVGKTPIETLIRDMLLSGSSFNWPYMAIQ

[12] = cells
[13] = HepG2 cell cytotoxicity, dose response, cytotoxicity control for Shn3 inhibitor project, CellTiter-Glo, cherry-picked (AID 624134); format: functional, cell-based
[14] = target: Transitional endoplasmic reticulum ATPase (Homo sapiens, UniProt P55072); test: Luminescence dose response biochemical high throughput screening assay for inhibitors of the p97 ATPase: synthesized compounds. [Related pubchem assays: 1481, 1517 ]
Chain of Transitional endoplasmic reticulum ATPase (Homo sapiens, UniProt P55072) (P55072 whole entry): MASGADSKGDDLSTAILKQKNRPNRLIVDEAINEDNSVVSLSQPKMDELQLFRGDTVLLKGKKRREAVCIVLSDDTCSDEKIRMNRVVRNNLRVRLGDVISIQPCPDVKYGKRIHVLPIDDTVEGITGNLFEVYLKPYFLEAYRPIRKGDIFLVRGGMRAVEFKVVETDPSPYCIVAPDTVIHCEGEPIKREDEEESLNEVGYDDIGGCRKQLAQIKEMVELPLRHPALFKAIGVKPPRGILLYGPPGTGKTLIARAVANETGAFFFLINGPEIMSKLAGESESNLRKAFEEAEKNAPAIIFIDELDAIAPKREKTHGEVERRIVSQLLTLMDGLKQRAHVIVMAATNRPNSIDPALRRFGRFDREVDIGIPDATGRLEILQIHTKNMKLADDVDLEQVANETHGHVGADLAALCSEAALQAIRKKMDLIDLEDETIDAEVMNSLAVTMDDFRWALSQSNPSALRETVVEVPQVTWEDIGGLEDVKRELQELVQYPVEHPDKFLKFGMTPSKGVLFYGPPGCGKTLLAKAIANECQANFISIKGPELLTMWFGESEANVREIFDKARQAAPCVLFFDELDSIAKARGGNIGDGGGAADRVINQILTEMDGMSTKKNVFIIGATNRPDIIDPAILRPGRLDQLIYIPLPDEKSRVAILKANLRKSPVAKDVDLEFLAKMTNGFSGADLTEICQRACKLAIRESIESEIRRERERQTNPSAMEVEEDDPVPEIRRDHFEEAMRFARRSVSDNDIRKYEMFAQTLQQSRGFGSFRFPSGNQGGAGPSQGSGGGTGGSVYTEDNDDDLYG

[15] = target: Transitional endoplasmic reticulum ATPase (Homo sapiens, UniProt P55072, C522A); test: Luminescence counterscreen assay for p97 inhibitors: dose response biochemical high throughput screening assay to identify inhibitors of the C522A mutant p97 ATPase: synthesized compounds. [Related pubchem assays: 1481, 1517, 1551 ]
Chain of Transitional endoplasmic reticulum ATPase (Homo sapiens, UniProt P55072, C522A) (P55072 2-806 C522A limits assumed): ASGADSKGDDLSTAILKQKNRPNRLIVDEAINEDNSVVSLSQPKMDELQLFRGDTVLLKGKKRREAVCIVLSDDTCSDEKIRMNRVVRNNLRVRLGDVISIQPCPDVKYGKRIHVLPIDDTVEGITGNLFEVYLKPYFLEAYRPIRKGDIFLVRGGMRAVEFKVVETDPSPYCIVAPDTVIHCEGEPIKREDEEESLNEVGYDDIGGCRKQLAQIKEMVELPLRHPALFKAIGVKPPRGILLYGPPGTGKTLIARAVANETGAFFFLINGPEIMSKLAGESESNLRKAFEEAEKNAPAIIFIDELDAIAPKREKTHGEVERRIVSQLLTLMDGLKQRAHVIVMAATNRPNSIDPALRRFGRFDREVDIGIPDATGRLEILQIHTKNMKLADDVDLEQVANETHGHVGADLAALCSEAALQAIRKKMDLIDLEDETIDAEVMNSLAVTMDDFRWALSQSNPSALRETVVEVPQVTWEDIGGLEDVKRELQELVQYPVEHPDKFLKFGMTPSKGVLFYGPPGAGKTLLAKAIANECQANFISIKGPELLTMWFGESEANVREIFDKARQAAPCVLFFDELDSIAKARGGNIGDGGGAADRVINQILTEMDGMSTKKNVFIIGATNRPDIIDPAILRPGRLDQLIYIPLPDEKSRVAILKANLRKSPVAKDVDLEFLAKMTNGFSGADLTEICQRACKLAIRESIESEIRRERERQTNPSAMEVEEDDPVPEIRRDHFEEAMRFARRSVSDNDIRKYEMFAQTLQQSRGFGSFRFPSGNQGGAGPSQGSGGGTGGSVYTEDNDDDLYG

[16] = target: T1, Bcl-2-like protein 10 (Homo sapiens, UniProt Q9HD36); test: Biochemical TR3 FP assay of Bcl-B inhibitor potency, EC50 (AID 1243); format: functional
T1 sequence (Q9HD36 whole entry): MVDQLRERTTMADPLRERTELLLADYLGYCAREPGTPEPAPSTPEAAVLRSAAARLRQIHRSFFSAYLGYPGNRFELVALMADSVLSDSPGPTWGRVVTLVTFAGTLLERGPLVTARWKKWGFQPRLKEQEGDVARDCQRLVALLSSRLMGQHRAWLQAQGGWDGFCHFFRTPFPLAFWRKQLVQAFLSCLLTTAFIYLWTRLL

[17] = target: Genome polyprotein (dengue virus type 2, UniProt P29990); test: Dengue-2 NS5 methyltransferase inhibitors, primary screen, biochemical, confirmation dose response (AID 588689); format: functional
Chain of Genome polyprotein (P29990 2492-3391 limits assumed): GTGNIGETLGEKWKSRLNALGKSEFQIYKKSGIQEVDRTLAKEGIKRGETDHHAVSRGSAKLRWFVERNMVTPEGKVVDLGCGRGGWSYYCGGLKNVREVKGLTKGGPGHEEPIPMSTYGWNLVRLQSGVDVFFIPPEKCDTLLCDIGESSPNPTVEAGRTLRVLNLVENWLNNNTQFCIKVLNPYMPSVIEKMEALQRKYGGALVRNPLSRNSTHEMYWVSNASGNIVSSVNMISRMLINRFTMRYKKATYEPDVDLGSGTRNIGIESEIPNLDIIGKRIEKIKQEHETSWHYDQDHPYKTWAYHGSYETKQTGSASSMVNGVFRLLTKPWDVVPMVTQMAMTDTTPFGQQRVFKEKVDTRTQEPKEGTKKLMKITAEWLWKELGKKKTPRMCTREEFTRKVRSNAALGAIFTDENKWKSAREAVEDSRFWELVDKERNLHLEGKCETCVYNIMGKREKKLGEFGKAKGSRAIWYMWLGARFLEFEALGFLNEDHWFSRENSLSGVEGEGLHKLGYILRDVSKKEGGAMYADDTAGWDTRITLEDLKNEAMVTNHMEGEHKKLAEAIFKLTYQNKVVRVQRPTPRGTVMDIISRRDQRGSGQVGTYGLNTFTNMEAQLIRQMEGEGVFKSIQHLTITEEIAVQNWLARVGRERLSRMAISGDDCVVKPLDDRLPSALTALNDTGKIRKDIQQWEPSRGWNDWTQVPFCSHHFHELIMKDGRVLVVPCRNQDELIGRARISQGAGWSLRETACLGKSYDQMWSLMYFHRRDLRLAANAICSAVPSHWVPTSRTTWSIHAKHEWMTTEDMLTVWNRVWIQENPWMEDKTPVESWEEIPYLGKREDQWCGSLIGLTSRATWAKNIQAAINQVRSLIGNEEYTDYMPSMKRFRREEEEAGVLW

[18] = target: NS3 (Hepatitis C virus, UniProt A3EZJ3); test: PubChem AID 2173; set-up: species or system Hepacivirus hominis
Chain of NS3 (A3EZJ3 whole entry): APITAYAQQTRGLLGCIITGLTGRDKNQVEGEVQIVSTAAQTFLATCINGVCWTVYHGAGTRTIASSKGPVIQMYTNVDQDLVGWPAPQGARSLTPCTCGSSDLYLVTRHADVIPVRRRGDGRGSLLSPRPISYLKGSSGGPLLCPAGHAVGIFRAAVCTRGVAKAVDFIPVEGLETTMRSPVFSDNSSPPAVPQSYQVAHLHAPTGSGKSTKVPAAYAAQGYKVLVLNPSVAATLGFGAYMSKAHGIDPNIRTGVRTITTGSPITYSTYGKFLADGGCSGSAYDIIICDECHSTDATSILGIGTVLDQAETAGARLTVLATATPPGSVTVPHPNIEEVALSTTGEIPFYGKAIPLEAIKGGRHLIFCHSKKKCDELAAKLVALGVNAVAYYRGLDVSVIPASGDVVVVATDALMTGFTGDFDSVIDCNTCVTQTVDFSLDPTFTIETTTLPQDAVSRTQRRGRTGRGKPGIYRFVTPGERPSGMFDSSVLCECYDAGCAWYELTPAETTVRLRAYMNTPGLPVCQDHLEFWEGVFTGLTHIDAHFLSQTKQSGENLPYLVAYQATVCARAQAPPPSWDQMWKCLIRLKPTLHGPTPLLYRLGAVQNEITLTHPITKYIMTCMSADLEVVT

[19] = cytotoxicity in KRAS-transformed pancreatic duct cells, primary screen, cell-based, fluorescence, HTS (AID 431); format: functional; conditions: Homo sapiens;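 also: cell line used: HPDE-C7K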
[20] = microbe, parasite or virus in culture; format: functional; conditions: Mycobacterium tuberculosis
[21] = cytotoxicity in HPDE-C7 cells, cell-based, fluorescence, HTS (AID 430); format: functional; conditions: Homo sapiens
[22] = human group III sPLA2 inhibitors, dose response, biochemical, QFRET, IC50 (AID 743457);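 also: green fluorescence rise as the enzyme cleaves BODIPY PC-A2 in liposomes; potency for inhibition of the enzyme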
[23] = Luminescence-based dose response cell-based high throughput screening assay for cytotoxic compounds using the IEC-6 intestinal epithelial cell line. [Related pubchem assays: 1858 (Summary AID.), 1825 (Counterscreen.), 1907 (Confirmation screen.)]; format: functional
[24] = target: Albumin (Bos taurus, UniProt P02769); test: Counterscreen for inhibitors of T-cell receptor (TCR)-CD3 interaction: Fluorescence-based biochemical high throughput dose response assay to identify inhibitors of T-cell receptor (TCR)-CD3 interaction using a TAMRA-labeled BSA probe.; format: functional
Chain of Albumin (P02769 whole entry): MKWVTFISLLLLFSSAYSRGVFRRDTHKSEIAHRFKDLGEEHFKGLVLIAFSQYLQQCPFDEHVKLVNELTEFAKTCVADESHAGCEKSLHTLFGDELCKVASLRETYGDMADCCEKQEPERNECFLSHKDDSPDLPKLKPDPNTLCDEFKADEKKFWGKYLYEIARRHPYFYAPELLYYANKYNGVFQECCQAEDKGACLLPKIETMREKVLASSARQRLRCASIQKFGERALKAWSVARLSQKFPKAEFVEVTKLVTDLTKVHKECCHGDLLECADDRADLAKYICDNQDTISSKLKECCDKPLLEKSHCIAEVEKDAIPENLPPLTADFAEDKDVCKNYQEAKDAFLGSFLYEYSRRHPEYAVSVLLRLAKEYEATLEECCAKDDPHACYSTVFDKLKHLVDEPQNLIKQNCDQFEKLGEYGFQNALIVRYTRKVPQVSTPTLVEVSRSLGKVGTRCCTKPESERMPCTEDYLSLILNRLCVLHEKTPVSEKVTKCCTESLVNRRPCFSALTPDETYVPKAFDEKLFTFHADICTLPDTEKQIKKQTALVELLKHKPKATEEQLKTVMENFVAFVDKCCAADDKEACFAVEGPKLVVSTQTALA

[25] = cells; format: functional, cell-based
[26] = cells; format: functional, cell-based; remark: listed apart in the source
[27] = target: Endoplasmic reticulum aminopeptidase 1 (Homo sapiens, UniProt Q9NZ08); test: ERAP1 aminopeptidase inhibitors, dose response, biochemical, cherry-pick, set 2, plate reader (AID 743314)
[28] = A549 cell cytotoxicity, dose response, CellTiter-Glo luminescence, dry powder, set 17 (AID 1117284); format: functional, cell-based
[29] = cytotoxicity in OVCAR8 ovarian cancer cells, dose response, PAX8 project, cell-based, plate reader, dry powder samples (AID 743197); format: functional; conditions: OVCAR-8
[30] = target: Paired box protein Pax-8 (Homo sapiens, UniProt Q06710); test: inhibitors of PAX8-driven TPO luciferase reporter, dose response, RMG-I cells, cherry-pick (AID 687027); format: functional, cell-based;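 also: luciferase reporter driven by Pax8 target thyroperoxidase promoter measured by SteadyGlo luminescence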
Chain of Paired box protein Pax-8 (Q06710 whole entry): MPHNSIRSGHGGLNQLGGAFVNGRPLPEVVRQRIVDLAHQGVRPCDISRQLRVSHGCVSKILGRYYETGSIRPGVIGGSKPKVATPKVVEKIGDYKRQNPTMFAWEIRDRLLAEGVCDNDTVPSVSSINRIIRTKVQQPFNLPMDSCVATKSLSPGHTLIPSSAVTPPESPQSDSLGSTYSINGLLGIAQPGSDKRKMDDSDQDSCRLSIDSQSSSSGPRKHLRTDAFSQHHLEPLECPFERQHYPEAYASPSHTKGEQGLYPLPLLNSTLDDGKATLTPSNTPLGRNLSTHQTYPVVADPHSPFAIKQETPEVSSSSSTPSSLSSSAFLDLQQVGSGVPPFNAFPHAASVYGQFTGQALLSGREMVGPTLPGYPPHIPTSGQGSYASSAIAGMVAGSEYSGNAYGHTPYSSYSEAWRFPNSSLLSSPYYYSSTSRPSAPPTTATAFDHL

COc1ccc(C2=Nn3c([n+](C)c4ccccc43)SC2)cc1
AC50 [1]: 1.54 µM (active) | AC50 [2]: 3.2 µM (active) | EC50 [3]: 11.1 µM (active) | AC50 [4]: 1.16 µM (active) | EC50 [5]: < 0.1 µM (active) | EC50 [6]: > 60 µM (not active) | IC50 [7]: > 80 µM (inactive) | IC50 [8]: 12.2 µM (active) | IC50 [9]: 13 µM (inactive) | IC50 [10]: > 20 µM (inactive) | IC50 [11]: 5.66 µM (active) | EC50 [12]: 0.087 µM (active) | AC50 [13]: > 70 µM (inactive)

CCOC(=O)/C(C#N)=C/c1ccc(F)cc1[N+](=O)[O-]
IC50 [14]: > 50 µM (not active) | IC50 [15]: > 50 µM (not active)

Cc1cc(-c2csc(Nc3ccc(C#N)cc3)n2)c(C)n1CCc1ccccc1
IC50 [14]: > 50 µM (not active) | IC50 [15]: > 50 µM (not active)

Cc1ccc(Cl)cc1S(=O)(=O)N1CCC(C(=O)NC2CCN(Cc3ccccc3)CC2)CC1
IC50 [11]: 12 µM (inactive)

COc1cc(N)ccc1-n1c(C)ccc1C
EC50 [16]: 32.9 µM (active)

Cc1cc(N2C(=O)C(O)=C(C(=O)c3ccco3)C2c2cccc(Oc3ccccc3)c2)no1 (configuration not stated)
IC50 [17]: 64.6 µM (active) | IC50 [18]: 2.64 µM (active)

Cc1oc(C(=O)Nc2ccc(O)cc2)cc1COc1ccccc1
EC50 [19]: 13.9 µM (active) | CC50 [20]: > 40 µM (active) | EC50 [21]: 16.6 µM (active)

CC1=C(C#N)c2nc(N)c(C#N)c(C)c2/C1=C/c1ccc(-c2ccc(C(=O)O)c(Cl)c2)o1
EC50 [16]: 1.65 µM (active)

C/C(=N\NC(=O)c1nnn(-c2nonc2N)c1-c1ccccc1)c1ccccc1O
IC50 [22]: > 122 µM (inactive) | AC50 [1]: 0.353 µM (active) | IC50 [23]: 1.19 µM (active) | IC50 [24]: > 94.1 µM (inactive) | EC50 [5]: 0.617 µM (active) | EC50 [25]: 58.5 µM (active) | EC50 [26]: 113 µM (active) | EC50 [6]: 3.76 µM (active)

CCCNC(=O)N(C)C[C@@H]1Oc2ncc(-c3ccncc3)cc2C(=O)N([C@H](C)CO)C[C@@H]1C
AC50 [27]: 16.9 µM (active)

C[C@@H]1CN([C@@H](C)CO)S(=O)(=O)c2ccc(C#C[C@@H](C)O)cc2O[C@@H]1CN(C)Cc1ccc(-c2ccccc2)cc1
AC50 [28]: > 52 µM (inactive) | AC50 [29]: > 70 µM (inactive) | AC50 [30]: 12.3 µM (active)
